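Test compounds were applied to cells in 96-well plates for 48 hours at 5 doses. Abbreviation: GI50, concentration required for 50% inhibition of growth.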 Calls of active or inactive are those of the source. Rule as the data show it: active = GI50 up to about 1.1 µM and inactive = higher.
Experiments:
Assay in all cases: NCI anticancer screen, dose series, 48 h
[1] = system: RXF 631
[2] = system: M19-MEL
[3] = system: DMS-114
[4] = system: LXFL 529
[5] = system: HOP-18
[6] = system: DLD-1
[7] = system: DMS-273
[8] = system: XF498
[9] = system: BT-549

CN1CCCCC(C(O)(c2ccccc2)c2ccccc2)C1=O (stereo not drawn)
GI50 [1]: 42.4 µM (inactive)
GI50 [2]: > 100 µM (inactive)
GI50 [3]: 86.1 µM (inactive)
GI50 [4]: 81.7 µM (inactive)
GI50 [5]: > 100 µM (inactive)
GI50 [6]: 39.4 µM (inactive)
GI50 [7]: 44.1 µM (inactive)
GI50 [8]: > 100 µM (inactive)

O=C(CC(=O)N1N=C(n2ccc3ccccc32)CC1c1ccccc1)Nc1ccccc1Cl (stereo not drawn)
GI50 [1]: > 100 µM (inactive)
GI50 [2]: > 100 µM (inactive)
GI50 [3]: > 100 µM (inactive)
GI50 [4]: > 100 µM (inactive)
GI50 [5]: > 100 µM (inactive)
GI50 [7]: > 100 µM (inactive)

COC1=CC(=O)c2c(O)c3c(c(O)c2C1=O)C[C@](C)(O)C[C@@H]3O
GI50 [1]: 1.95 µM (inactive)
GI50 [2]: 0.296 µM (active)
GI50 [3]: 1.46 µM (inactive)
GI50 [4]: 3.81 µM (inactive)
GI50 [6]: 1.31 µM (inactive)
GI50 [7]: 1.57 µM (inactive)
GI50 [8]: 2.86 µM (inactive)
GI50 [9]: 7.76 µM (inactive)

COc1cc(C(=O)C(CO)Oc2ccccc2OC)ccc1O (stereo not drawn)
GI50 [1]: > 100 µM (inactive)
GI50 [2]: > 100 µM (inactive)
GI50 [3]: > 100 µM (inactive)
GI50 [4]: > 100 µM (inactive)
GI50 [5]: > 100 µM (inactive)
GI50 [6]: > 100 µM (inactive)
GI50 [7]: > 100 µM (inactive)

Cc1ccccc1-n1c(N)c(-c2nc3ccccc3[nH]2)sc1=S
GI50 [1]: 24.9 µM (inactive)
GI50 [2]: 23.3 µM (inactive)
GI50 [3]: 24.2 µM (inactive)
GI50 [4]: 22.1 µM (inactive)
GI50 [5]: 30.2 µM (inactive)
GI50 [6]: 27.3 µM (inactive)
GI50 [7]: 18.9 µM (inactive)

N=C(N)NS(=O)(=O)c1ccc(Nc2c3ccccc3nc3c(C(=O)Nc4ccc(S(N)(=O)=O)cc4)ccc(Cl)c23)cc1
GI50 [1]: > 100 µM (inactive)
GI50 [2]: > 100 µM (inactive)
GI50 [3]: > 100 µM (inactive)
GI50 [4]: > 100 µM (inactive)
GI50 [5]: > 100 µM (inactive)
GI50 [6]: > 100 µM (inactive)
GI50 [7]: > 100 µM (inactive)
GI50 [8]: > 100 µM (inactive)

O=C(NCCCCNc1cccccc1=O)OCc1ccccc1
GI50 [1]: > 100 µM (inactive)
GI50 [2]: > 100 µM (inactive)
GI50 [3]: 56.4 µM (inactive)
GI50 [4]: > 100 µM (inactive)
GI50 [5]: > 100 µM (inactive)
GI50 [6]: > 100 µM (inactive)
GI50 [7]: > 100 µM (inactive)

COC(=O)C1CC2c3c(c4ccccc4n3C)CC(C1=O)N2C (stereo not drawn)
GI50 [1]: 63.4 µM (inactive)
GI50 [2]: 49.3 µM (inactive)
GI50 [3]: 21.2 µM (inactive)
GI50 [4]: 39 µM (inactive)
GI50 [5]: 40 µM (inactive)
GI50 [6]: 40.9 µM (inactive)
GI50 [7]: 20.2 µM (inactive)

Reference: ChEMBL document CHEMBL1201862, “PubChem BioAssay data set” (2004)
